What all share (test): NCI anticancer screen, dose series, 48 h
The test system of test [1] is NCI-H522 lung.
In test [2] the test system is HOP-92 NSCLC.
In test [3] the test system is UO-31 renal.
Test [4] deals with HCT-15 colon.
Test [5] concerns BT-549 breast.
The test system of test [6] is OVCAR-8 ovarian.
Test [7] has as its system MDA-MB-231 breast.
For test [8], the system named is SK-MEL-28 melanoma.
Test [9] concerns PC-3 prostate.
Test [10] has as its system SK-OV-3 ovarian.

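Cells were grown in 96-well plates and exposed to each compound for 48 hours at five concentrations; endpoints were interpolated linearly between bracketing concentrations, or set to the highest concentration if not reached. At the TGI there is no net growth.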

Consider `CN(C)Cc1cc(N=Nc2ccc(Cl)c(Cl)c2)ccc1O`, for which the TGI in [1] is 16.2 µM; in [2] it was 22.3 µM; in test [3], 11.9 µM; in test [4], 19.1 µM; in test [5], 27 µM; in test [6], 25.5 µM. In addition, the TGI in test [7] is 18.2 µM; in test [8], 26.5 µM; in [9], 23.8 µM.

As to `Cc1ccc2[nH]c(=O)c(-c3cnc(=O)[nH]n3)c(O)c2c1`, the TGI in test [3], in test [4], in test [10], in [5], in test [6] and in test [7] was greater than 100 µM in each case. Also, the TGI in test [8] and in test [9] was greater than 100 µM each time.

For the compound `N#CC(c1ccccc1)c1cccc2ccccc12` (stereo not drawn), the TGI in [1] is 53.9 µM; in test [3], greater than 100 µM; in test [4], greater than 100 µM; in test [6], 76.4 µM; in [7], greater than 100 µM; in test [8] it was greater than 100 µM. The same compound showed a TGI in test [9] of 71.6 µM.

For `CN(C)c1ccc(/C=C2\N=C(c3ccccc3)N(c3nc4c(Cl)cc(Cl)cc4s3)C2=O)cc1`, the TGI in test [2], in [3], in test [4], in test [10], in test [5] and in test [6] was greater than 100 µM in each case. Also, the TGI in [7], in test [8] and in [9] was greater than 100 µM each time.

Take `O=C1/C(=C/c2cccs2)N=C(c2ccccc2)N1C1Nc2cc3c(cc2S1)NC(N1C(=O)/C(=C/c2cccs2)N=C1c1ccccc1)S3` (stereo not drawn): the TGI in test [1] was 31.4 µM; in test [2], greater than 100 µM; in [3], greater than 100 µM; in [4] it was 34.7 µM; in [5], 35.1 µM; in test [6], 47.2 µM. In addition, the TGI in test [7], in test [8] and in test [9] was greater than 100 µM each time.

On to `CC(C)n1c(=O)c2nn3c(=O)n(C(C)C)c(=O)c3nn2c1=O`, for which the TGI in [2], in test [4], in [10], in test [6], in test [7] and in test [8] was greater than 100 µM each time. In test [9], this compound registered a TGI greater than 100 µM.

In the case of `CC(NC(=O)c1ccc(OP(=O)(OCC2=CC(=O)c3ccccc3C2=O)N(C)CCCCCl)cc1)c1ccc(OCC2CCCCC2)c(C(N)=O)c1` (stereo not drawn), the TGI was found to be 29 µM in test [1]; 19.6 µM in test [2]; 21.9 µM in test [3]; 24.7 µM in [4]; 48.8 µM in test [10]; 29.6 µM in test [6]. Also, the TGI in test [7] is 21.3 µM; in test [8], 27.2 µM; in test [9], 58.6 µM.

For `COc1cccc(-c2cc(=O)c3cc(C)cnc3[nH]2)c1`, the TGI is 3.59 µM in test [3]; greater than 100 µM in test [10]; greater than 100 µM in test [5]; greater than 100 µM in [7]; greater than 100 µM in test [8]; greater than 100 µM in test [9].

As for `COc1cc(C(C#N)NNC(=O)c2ccccc2O)ccc1O` (stereo not drawn), the TGI was 28.7 µM in test [1]; 97.3 µM in [2]; 3.28 µM in test [3]; greater than 100 µM in test [4]; greater than 100 µM in test [10]; greater than 100 µM in [6]. The compound further showed a TGI in test [8] greater than 100 µM.

Regarding `COc1ccc(CN=CN/C(C#N)=C(\N)C#N)cc1OC`, the TGI in test [1], in [3], in test [4], in [10], in [5] and in test [6] was greater than 100 µM in each case. Further, the TGI in test [7], in test [8] and in test [9] was greater than 100 µM throughout.

Regarding `CC(=O)C(=C(I)I)c1ccccc1`, the TGI in [1] is 31 µM; in [2], 64.5 µM; in test [3], 33.8 µM; in test [4] it was greater than 100 µM; in [10] it was greater than 100 µM; in [6] it was 39.6 µM. The TGI in [7] stood at 51.4 µM; in test [8], 38.7 µM; in test [9] it was 83.8 µM.

Turning to `COc1ccc(CNc2nc3ccccc3nc2-c2cccs2)cc1`, the TGI in test [1] was greater than 100 µM; in test [2] it was greater than 100 µM; in test [3], 71.1 µM; in [4], greater than 100 µM; in [10], greater than 100 µM; in test [5] it was 95.4 µM. Moreover, the TGI in test [6], in test [7] and in [8] was greater than 100 µM throughout.

Regarding `Cc1cc2ccccc2c[n+]1CC(=O)CC([O-])(C(F)(F)F)C(F)(F)F`, the TGI in test [1], in [2], in test [3], in [4], in [10] and in test [6] was greater than 100 µM in each case. The TGI in test [7], in test [8] and in test [9] was greater than 100 µM in each case.

As for `COc1cccc(/C=C/C2=NN(c3cccc(S(=O)(=O)O)c3)C3(C2)SCC(=O)N3c2nc3ccccc3s2)c1` (stereo not drawn), the TGI is 28.4 µM in test [1]; greater than 100 µM in test [2]; greater than 100 µM in test [3]; greater than 100 µM in test [4]; greater than 100 µM in [5]; greater than 100 µM in [6]. Besides, the TGI in [7], in [8] and in test [9] was greater than 100 µM in each case.

With `Cc1nc2c(Br)cc(Br)cc2c(=O)n1-c1ccccc1N`, the TGI was 83.8 µM in [3]; greater than 100 µM in [4]; greater than 100 µM in [10]; 87.6 µM in test [5]; greater than 100 µM in test [6]; greater than 100 µM in [7]. In addition, the TGI in [8] and in test [9] was greater than 100 µM each time.

For `CCN(CC)C(=O)CCCCCCCCC1CO1` (stereo not drawn), the TGI in test [1], in [2], in test [3], in [4], in test [10] and in [6] was greater than 100 µM throughout. Also, the TGI in [7], in test [8] and in [9] was greater than 100 µM each time.

Values taken from PubChem BioAssay (NCI).
